According to publication PMC7203245, “Lacosamide intake during pregnancy increases the incidence of foetal malformations and symptoms associated with schizophrenia in the offspring of mice” (Scientific Reports, 2020):
Marks after values point to notes of the source that are not given here.

Experiments:
adult male mice [1] = test: Pain assay (hot plate); format: in vivo; details: 120 mg/kg LCM during gestation; at 52 and 55 degrees relative to control
Protocol: (§1) All trials were performed by an experimenter blind to the drug treatment.
Pain assay. Pain behaviour was assessed in mice using the hot plate. For the hot-plate test, a glass cylinder (16 cm high, 16 cm in diameter) was used to constrain the mice to the heated surface of the plate. The plate surface was maintained at 50-55 ± 0.5 °C and the latency to commence paw-licking was measured, using a 30 s cut-off time for each of the tested temperatures. Each temperature was tested with 1h apart.

developing embryos = test: Embryo development at E14.5 after daily LCM administration to dams (litters, resorptions, litter size, malformations); format: in vivo, mice; details: for CR length (cm): crown-rump
Protocol: (§2) Thus, we used 10, 40, 80 and 120 mg/kg in mice, which corresponded to 56.7, 227, 454 and 681 mg/day in humans, considering an average weight of human to be 70 kg and that of mice to be 30 gr[52],[55]. Controls were administered the vehicle alone: saline solution 0.9% w/v. […] A total of 32 dams were initially treated daily, two days before mating and until the 14th day post-coitus. […] In the breastfeeding period, females were not under treatment given that a person will bottle feed the baby if they were on medication.
Maternal weights were assessed at the end of the treatment periods. After 14.5 days of gestation (embryonic day14.5, E14.5), blood was extracted from the orbital sinus of the pregnant dams under anaesthesia (70 mg/kg Thiobarbital: Braun Medical S.A. Spain), as described previously[56] and sacrificed by neck dislocation immediately after. Blood samples were centrifuged immediately, and the serum was collected and stored at -80 °C for further chemical analysis.
The E14.5 embryos were collected and fixed in 4% paraformaldehyde for 4 h and then kept at 4 °C in 70% ethanol. The litter size of each dam was recorded, and embryos were assessed for external malformations and photographed on a stereomicroscope (SteREO Discovery V8 + AxioCam Erc8, Zeiss, Oberkochen, Germany). The crown-rump lengths of embryos were measured in the photographs using ImageJ software (downloaded as a free software package from the public domain: http://rsb.info.nih.gov/ij/download.html) and based on the reference points described previously. Embryos were then embedded in paraffin, sectioned at 10, 7 and 5 μm, and stained with Ehrlich Haematoxylin & Eosin (H&E) for histology analysis. Representative sections were selected from at least three embryos for each condition and photographed on an Olympus (Tokyo, Japan) BX-61 photomicroscope.

adult male mice [2] = test: Motor activity and exploration in the open field; format: in vivo; details: high-dose LCM in utero; 3–5 month old mice; 5 minutes
Protocol: as §1
Motor activity in the open field. To evaluate locomotor and exploratory activity, mice were placed in an open field for 5 minutes (38 x 21 x 15 cm: Cybertec S.A., Madrid, Spain). This apparatus consisted of a walled platform containing infrared (IR) emitters and sensors coupled to an actimeter, and the movement sensor was connected to a computer that recorded the number of times the mouse interrupted the IR beams/min. Exploratory activity, was determined through the time the mice interacted with two different objects in a 15 minute session.

pups = test: Litter loss, neonatal lethality and body weight of pups born to dams given LCM during gestation; format: in vivo, mice; details: for weight gain from P2 to P13: higher dose
Protocol: as §2
In this part of the study, dams were treated until the day of delivery. After analysing the embryo toxicity data, the treatments were categorized as controls (saline vehicle solution alone), low dose (40 mg/kg) and high dose (120 mg/kg). […] The day of birth was designated as postnatal day (P) P0 and the litter size delivered by each dam was recorded, checking each pup for gross abnormalities. Pups were nursed by their natural dams until weaning and from PD 2, the pups were weighed and neonatal behavioural tests were carried out on 12 control mice, 12 low dose and 10 high dose mice from 7 litters. During testing whole litters were separated from the dams and maintained for 30 min in a warm environment. At this stage, males and females were pooled for neurodevelopmental screening. All testing was performed between 07:30 a.m. and 12:00 a.m., and the mice were weighed before performing the tests.

adult male mice [3] = test: Tail suspension test; format: in vivo; details: 5 minutes
Protocol: as §1
Tail suspension test. Depression-like behaviour in mice was determined by measuring the time spent immobile in the tail suspension test. Mice were suspended above the floor by attaching the end of their tail to wire netting, and the time spent immobile during a 5 min test session was measured.

[4] = 10 mg/kg LCM daily i.p. to dams
[5] = 40 mg/kg LCM daily i.p. to dams
[6] = 80 mg/kg LCM daily i.p. to dams
[7] = 120 mg/kg LCM daily i.p. to dams
[8] = High doses (80 or 120 mg/kg LCM daily i.p. to dams)
[9] = High doses (80 or 120 mg/kg LCM daily i.p. to dams), mean ± S.E.M., p < 0.05
[10] = Low doses (10 or 40 mg/kg LCM daily i.p. to dams)
[11] = higher dose (120 mg/kg) to dams during gestation
[12] = lower dose (40 mg/kg) to dams during gestation

COC[C@@H](NC(C)=O)C(=O)NCc1ccccc1 [LCM, R-2-acetamido-N-benzyl-3-methoxypropionamide]
thermal nociception in the hot plate test (adult male mice [1]): significant hyperalgesia | Emb (no.) (developing embryos; [4]): 117 no. | Lost Litter (no.) (developing embryos; [4]): 0 no. | Malformation (%) (developing embryos; [4]): 4.3% | Resorpt (%) (developing embryos; [4]): 4% | CR length (cm) (developing embryos; [4]): 1.18 cm | Emb (no.) (developing embryos; [5]): 67 no. | Lost Litter (no.) (developing embryos; [5]): 0 no. | Malformation (%) (developing embryos; [5]): 7.4% | Resorpt (%) (developing embryos; [5]): 1.5% | CR length (cm) (developing embryos; [5]): 1.09 cm | Emb (no.) (developing embryos; [6]): 41 no. | Lost Litter (no.) (developing embryos; [6]): 1 no. | Malformation (%) (developing embryos; [6]): 12.2% | Resorpt (%) (developing embryos; [6]): 0% | CR length (cm) (developing embryos; [6]): 1.03 cm | Emb (no.) (developing embryos; [7]): 73 no. | Lost Litter (no.) (developing embryos; [7]): 1 no. | Malformation (%) (developing embryos; [7]): 2.7% | Resorpt (%) (developing embryos; [7]): 2.5% | CR length (cm) (developing embryos; [7]): 1.08 cm | Emb (no.) (developing embryos; [8]): 114 no. | Lost Litter (no.) (developing embryos; [8]): 2 no. | Malformation (%) (developing embryos; [8]): 6.1% | Resorpt (%) (developing embryos; [8]): 1.75% | CR length (cm) (developing embryos; [9]): 1.06 ± 0.08^b cm | Emb/dam (developing embryos; [9]): 9.5 ± 0.4^b | Emb (no.) (developing embryos; [10]): 184 no. | Lost Litter (no.) (developing embryos; [10]): 0 no. | Malformation (%) (developing embryos; [10]): 5.4% | Resorpt (%) (developing embryos; [10]): 3.2% | CR length (cm) (developing embryos; Low doses (10 or 40 mg/kg LCM daily i.p. to dams), mean ± S.E.M.): 1.1 ± 0.1 cm | number of embryos/litter (developing embryos; high doses of LCM (80 or 120 mg/kg), p = 0.02): 9.5 ± 0.4 embryo/litter | number of embryos/litter (developing embryos; low doses of LCM (10 or 40 mg/kg)): 12.2 ± 0.1 embryos/litter | locomotor activity in open field (adult male mice [2]): enhanced locomotor activity | dams that never gained weight, suggesting that they lost their litters (pups; 40 mg/kg LCM daily from second day of gestation to birth): 1/5 | dams that never gained weight, suggesting that they lost their litters (pups; 120 mg/kg LCM daily from second day of gestation to birth): 2/8 | body weight differences in adults (pups; both LCM doses (40 and 120 mg/kg in utero), adult mice): disappeared | neonatal lethality (%) (pups; [11]): 15.38% | neonatal lethality (pups) (pups; [11]): 10/65 | weight gain from P2 to P13 (pups; litter that died in the perinatal nursing period): 2 g | weight gain from P2 to P13 (pups; other pups under the same condition): 6.1 g | neonatal lethality (%) (pups; [12]): 9% | neonatal lethality (pups) (pups; [12]): 3/33 | pups of an entire litter that died in the perinatal nursing period (P15-16) (pups; one dam exposed to higher dose): 11 pups | immobility time (tail suspension test) (adult male mice [3]; 40 mg/kg in utero): 82.58 ± 7.38 s | immobility time (tail suspension test) (adult male mice [3]; 120 mg/kg in utero): 109.0 ± 7.69 s
